From ChEMBL document CHEMBL2203091, “Synthesis of novel МТ3 receptor ligands via an unusual Knoevenagel condensation” (Bioorg Med Chem Lett, 2012)

Key:
[1] = biological target: T1, Ribosyldihydronicotinamide dehydrogenase [quinone] (Homo sapiens) (UniProt P16083); experiment: Inhibition of […] reductase 2 using MTT and NMeH as substrates
T1 sequence (whole entry): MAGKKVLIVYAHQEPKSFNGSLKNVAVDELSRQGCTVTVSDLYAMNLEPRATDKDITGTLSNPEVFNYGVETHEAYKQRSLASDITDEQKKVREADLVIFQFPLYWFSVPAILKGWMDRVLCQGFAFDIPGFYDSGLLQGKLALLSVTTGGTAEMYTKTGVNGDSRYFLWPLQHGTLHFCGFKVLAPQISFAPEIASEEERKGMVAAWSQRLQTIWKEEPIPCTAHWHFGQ

[2] = biological target: T2, Ribosyldihydronicotinamide dehydrogenase [quinone] (Homo sapiens, UniProt P16083); experiment: Binding affinity to […] reductase 2 using MTT and NMeH as substrates
T2 sequence (P16083 whole entry): T1 sequence (whole entry)

[3] = biological target: T1, Ribosyldihydronicotinamide dehydrogenase [quinone] (Homo sapiens); settings: 0.5 to 50 uM
Description: Inhibition of human recombinant quinine reductase 2 expressed in Escherichia coli BL21 (DE3) using menadione and NMeH as substrates at 0.5 to 50 uM

Compound	Imax [1]	IC50 [2]	Imax [3]
CC(=O)Nc1ccc2c(c1)C(CC#N)C(=O)N2 (stereo not given)	100%	14.1 µM	–
CC(=O)Nc1ccc2c(c1)C(CC#N)C(=O)N2C (stereo not given)	99.2%	7 µM	–
CC(=O)NCCC1(O)C(=O)Nc2ccc(NC(C)=O)cc21 (stereo not given)	36.3%	0.2 µM	–
CC(=O)NCCC1C(=O)Nc2ccc(NC(C)=O)cc21 (stereo not given)	81.7%	20.7 µM	–
COc1ccc2[nH]cc(CCNC(C)=O)c2c1	85.2%	–	75%
